Test results: publication PMC5059467, “Anti-tubulin drugs conjugated to anti-ErbB antibodies selectively radiosensitize” (Nature Communications, 2016)
Square brackets hold non-standard residues; d marks the D form. Peptide text beside a SMILES is read from it. * marks the point of attachment. Dolaproine = CO[C@@H]([C@@H]1CCCN1)[C@@H](C)C(=O)O; Dil = CC[C@H](C)[C@H](NC)[C@@H](CC(=O)O)OC; X1 = C[C@@H](N*)[C@@H](O)c1ccccc1; NMeV = CN[C@H](C(=O)O)C(C)C

Experiments:
CALU3 cells = assay: Neutral comet assay after IR, CALU3 cells; type: cell-based, human; conditions: 2 nM overnight, 6 Gy, compared with vehicle or 20 nM antibody
Procedure: (§1) Cells were collected 15 min post IR, suspended in agarose gel and lysed per assay directions (Trevigen). Samples underwent electrophoresis under neutral conditions and were then stained with Sybr Green. Comet tails were counted in multiple fields (>60 cells per sample) and analysed using CometScore (TriTek Corp). Comet tail length was normalized to vehicle-treated, non-irradiated cells.

OE19 cells [1] = assay: Neutral comet assay after IR, OE19 cells; type: cell-based, human
Procedure: as §1

CAL-27 cells [2] = assay: Clonogenic cell survival (SF2), CAL-27 cells; type: cell-based, human; conditions: compared with vehicle
Procedure: Following IR, cells were counted, re-plated at varying cell numbers in drug-free media. […] Surviving fraction at 2 Gy (SF2) was calculated as the fraction of cells surviving 2 Gy compared with non-irradiated cells.

OE19 cells [3] = assay: Cell cycle profile (propidium iodide, flow cytometry), OE19 cells; type: cell-based, human; conditions: overnight treatment
Procedure: (§2) Cells were treated with RNAse, stained with propidium iodide (PI) and analysed by FACS using FloJo software.

CAL-27 cells [4] = assay: Cell cycle profile (propidium iodide, flow cytometry), CAL-27 cells; type: cell-based, human; conditions: overnight treatment
Procedure: as §2

CAL-27 tumour xenografts = assay: CAL-27 tumour xenograft growth with or without IR; type: in vivo, mice; conditions: Fig 4f, 0.5 nmol cetuximab or C-MMAE, 2 nmol free MMAE on day 0
Procedure: (§3) CAL-27, OE19, NCI N87 and HCT116 tumour xenografts were established and tumour growth was measured with digital calipers. Tumour volume was measured blindly to treatment group and calculated using the formula as ½ × length × width^2. Mice were randomized into groups once the average tumour volume reached >100 mm^3. Mice were assigned to indicated groups in ‘Results'. […] For irradiated mice, the tumour-bearing hindlimbs were focally irradiated while the remainder of the mouse was shielded from IR with custom designed lead blocking >95% of the dose as verified by dosimeters placed on the mouse. […] To prevent unnecessary morbidity, mice were killed if tumour length exceeded 15 mm per protocol. Nonlinear regression least squares fit was used to calculate tumour volume doubling times. […] To minimize the number of mice used, tumours were grown in the bilateral flanks.

[5] = parameters: method as in PMID 25681274; conditions: cited from earlier work
[6] = test system: cell lines irrespective of HER2 expression; assay: Alamar blue cell viability, cell lines irrespective of HER2 expression; type: cell-based, human; conditions: fairly consistent across cell lines irrespective of HER2 expression; 72–96 h
[7] = test system: HER2+ and HER2− cell lines; assay: Neutral comet assay after IR, HER2+ and HER2− cell lines; type: cell-based, human; conditions: 20 nM overnight, 2 Gy
Procedure: as §1

HCT116 cells [8] = assay: Clonogenic cell survival (SF2), HCT116 cells; type: cell-based, human; conditions: 5 nM overnight then 2 Gy, compared with vehicle
Procedure: Following IR, cells were counted, re-plated at varying cell numbers in drug-free media. 10–14 days after initial seeding formed colonies were methanol fixed, stained with crystal violet and counted. Surviving fraction at 2 Gy (SF2) was calculated as the fraction of cells surviving 2 Gy compared with non-irradiated cells.

HCT116 cells [9] = assay: Cell cycle profile (propidium iodide, flow cytometry), HCT116 cells; type: cell-based, human; conditions: overnight treatment
Procedure: as §2

CAL-27 cells [10] = test system: CAL-27 cells
Procedure: (§4) Alamar Blue (resazurin) was added to the cells and allowed to incubate for 2–4 h at 37 °C. Plates were analysed using a plate reader with fluorescence measured at 560 nm.

OE19 cells [11] = assay: Alamar blue cell viability, OE19 cells; type: cell-based, human; conditions: HER2+ OE19; 72–96 h
HCT116 cells [12] = conditions: read-out: IC50 (cell viability); HER2- HCT116; 72–96 h
Procedure: as §4

NCI N87 cells = conditions: read-out: IC50 (cell viability); HER2+ NCI N87 (gastric cancer); 72–96 h
Procedure: as §4

OE19 tumour xenografts = assay: OE19 tumour xenograft growth with or without IR; type: in vivo, mice; conditions: for Tumour doubling time in days (mean, 95% CI): OE19 (HER2+)
Procedure: as §3

[13] = test system: NCI N87 tumour xenografts; assay: NCI N87 tumour xenograft growth with or without IR; type: in vivo, mice; conditions: for Tumour doubling time in days (mean, 95% CI): NCI N87 (HER2+)
Procedure: as §3

HCT116 tumour xenografts = assay: HCT116 tumour xenograft growth with or without IR; type: in vivo, mice; conditions: for Tumour doubling time in days (mean, 95% CI): HCT116 (HER2−)
Procedure: as §3

OE19 tumours = assay: Immunohistochemistry of OE19 tumour xenografts (pS10 Histone H3, cleaved caspase 3); type: in vivo, mice; conditions: tumours harvested 48 h after drug
Procedure: Tissue sections were cut from blocks of formalin-fixed paraffin embedded xenografts. Four micron thick tissue sections were stained with antibodies to phospho-histone H3 (pH3, Abcam, catalogue number ab32107) and cleaved caspase-3 (ClC3, Cell Signaling Technology, catalogue number 9661) and used at dilutions of 1:300 and 1:900, respectively. Slides were stained on a Ventana Discovery Ultra (Ventana Medical Systems, Tucson, AZ, USA). Antigen retrieval was performed using CC1 for 24–40 min at 95 °C. The primary antibodies were incubated on the sections for 1 h at 37 °C. Primary antibodies were visualized used DAB as a chromagen using the UltraMap system (Ventana Medical systems) followed by hematoxylin as a counterstain. Slides were rinsed, dehydrated through alcohol and xylene and coverslipped.
Immunostained slides were scanned using an Axio Scan.Z1 (Zeiss; Oberkochen, Germany). […] Whole-slide images were imported into Definiens Software for quantitative analysis (Definiens; Munich, Germany). […] For analysis of pH3 (a nuclear stain), the total number of nuclei and the total number of nuclei showing DAB staining (pH3 positive cells) were recorded within each ROI. The percent of positive nuclei was then calculated for each sample. For analysis of ClC3 (a cytoplasmic stain), mean DAB chromagen intensity was measured and calculated within the ROI for each sample.

[14] = 0.25 nmol (∼1.9 mg kg^−1) day 0, 2.5 Gy days 1, 2 and 3
[15] = 0.25 nmol T-DM1 i.v. day 0, +IR 2.5 Gy on days 1, 2 and 3, extrapolated

CC[C@H](C)[C@@H]([C@@H](CC(=O)N1CCC[C@H]1[C@H](OC)[C@@H](C)C(=O)N[C@H](C)[C@@H](O)c1ccccc1)OC)N(C)C(=O)[C@@H](NC(=O)[C@@H](NC)C(C)C)C(C)C [MMAE, monomethyl auristatin E] (H-[NMeV]V[Dil][Dolaproine]-X1)
effect on IR induced comet tail length (CALU3 cells): increased comet tail length to a similar degree
effect on IR induced comet tail length (OE19 cells [1]; 2 nM overnight, 6 Gy, compared with vehicle, 20 nM antibody or 2 nM C-MMAE): further increased comet tail length
surviving fraction following 2 Gy (SF2) (CAL-27 cells [2]; drug overnight then 2 Gy): decreased
cell cycle profile (G2/M) (OE19 cells [3]): accumulating in G2/M
cell cycle profile (G2/M) (CAL-27 cells [4]): accumulating in G2/M
Mean Diff. Control vs. treatment + IR (Tukey's multiple comparisons, tumour volume) (CAL-27 tumour xenografts; day 35, + IR 3 Gy on days 1 and 2): 246.7
Mean Diff. Control vs. treatment (Tukey's multiple comparisons, tumour volume) (CAL-27 tumour xenografts; day 35, no IR): 272
concentration level effective as radiosensitizer [5]: single nM level

COc1cc2cc(c1Cl)N(C)C(=O)C[C@H](OC(=O)[C@H](C)N(C)C(=O)CCS)[C@]1(C)O[C@H]1[C@H](C)[C@@H]1C[C@@](O)(NC(=O)O1)[C@H](OC)/C=C/C=C(\C)C2 [mertansine]
IC50 [6]: ~10 nM
radiosensitization (IR induced DNA double-strand breaks, comet tail length) [7]: radiosensitized by increasing IR induced DNA double-strand breaks in both HER2+ and HER2− cell lines
surviving fraction following 2 Gy (SF2) (CAL-27 cells [2]; 5 nM mertansine overnight then 2 Gy): decreased further
surviving fraction following 2 Gy (SF2) (HCT116 cells [8]): decreased further
cell cycle profile (G2/M) (OE19 cells [3]): increased the accumulation
cell cycle profile (G2/M) (HCT116 cells [9]): increased the accumulation

CC(=O)O[C@H]1C(=O)[C@@]2(C)[C@H]([C@H](OC(=O)c3ccccc3)[C@]3(O)C[C@H](OC(=O)[C@H](O)[C@@H](NC(=O)c4ccccc4)c4ccccc4)C(C)=C1C3(C)C)[C@]1(OC(C)=O)CO[C@@H]1C[C@@H]2O [paclitaxel]
cytotoxic potency, paclitaxel compared with T-DM1 (CAL-27 cells [10]; HER2- CAL-27 cells, 96 hours): more potent than T-DM1

ado-trastuzumab emtansine [T-DM1]
IC50 (OE19 cells [11]): < 1 nM
IC50 (CAL-27 cells [10]; read-out: IC50 (cell viability), HER2- CAL-27, 72–96 h): > 100 nM
IC50 (HCT116 cells [12]): > 100 nM
IC50 (NCI N87 cells): < 1 nM
radiosensitization (comet tail length) (OE19 cells [1]; 2 nM T-DM1, irradiated OE19 (HER2+)): radiosensitized
radiosensitization (IR induced DNA double-strand breaks, comet tail length) [7]: restricted radiosensitization of HER2+ cells
cell cycle profile (G2/M) (OE19 cells [3]): blocked OE19 cells in G2/M
cell cycle profile (G2/M) (HCT116 cells [9]): resembled vehicle-treated cells
tumour regression with T-DM1 and IR (OE19 tumour xenografts; [14]): significantly prolonged tumour regression
Tumour doubling time in days (mean, 95% CI) (OE19 tumour xenografts; [15]): 66 (33+) days
Tumour doubling time in days (mean, 95% CI) (OE19 tumour xenografts; 0.25 nmol i.v. day 0, no IR): 11 (8–17) days
slowing of tumour growth compared with control or trastuzumab (OE19 tumour xenografts; single dose of 1 nmol, by day 14): equally efficacious in slowing tumour growth
tumour regression with T-DM1 and IR [13, 14]: significantly prolonged tumour regression
Tumour doubling time in days (mean, 95% CI) [13, 15]: 113 (82–179) days
Tumour doubling time in days (mean, 95% CI) ([13]; 0.25 nmol i.v. day 0, no IR): 23 (21–25) days
Tumour doubling time in days (mean, 95% CI) (HCT116 tumour xenografts; 0.25 nmol i.v. day 0, +IR 2.5 Gy on days 1, 2 and 3): 7 (5–12) days
Tumour doubling time in days (mean, 95% CI) (HCT116 tumour xenografts; 0.25 nmol i.v. day 0, no IR): 3 (2–5) days
benefit of adding T-DM1 to IR (HCT116 tumour xenografts; HER2- HCT116, 0.25 nmol day 0, 2.5 Gy days 1, 2 and 3): no benefit of adding T-DM1 to IR
cells in G2/M in tumours (pS10 Histone H3 IHC) (OE19 tumours): increased the number of cells in radiosensitive G2/M phase
